According to PubChem BioAssay AID1963966 (Molecular Pharmacology Branch, DTP, NCI, 2024):

System: 935938-334-R-J1-PDC spheroids with HUVEC/MSC, viability
Assay: Anticancer human tumor 935938-334-R-J1-PDC patient-derived small intestine adenocarcinoma cell line growth inhibition [PI3K]
Conditions: for IC50: curve of first compound; for viability, T/C: stronger effect = lower value
In short: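 Tumor cells grown as multi-cell spheroids with HUVEC endothelial cells and MSC fibroblast-like stroma were treated with targeted agents combined with inavolisib, alpelisib, duvelisib or copanlisib. Doses fell in half-log steps from near clinical Cmax, else from 10 microM. Viability was measured.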

[1] = second compound 0.00316 µM, first compound 0.0316 µM
[2] = second compound 0.00316 µM, first compound 0.1 µM
[3] = second compound 0.01 µM, first compound 0.0316 µM
[4] = second compound 0.01 µM, first compound 0.1 µM
[5] = second compound 0.0316 µM, first compound 0.0316 µM
[6] = second compound 0.0316 µM, first compound 0.1 µM
[7] = second compound 0.1 µM, first compound 0.0316 µM
[8] = second compound 0.1 µM, first compound 0.1 µM
[9] = second compound 0.316 µM, first compound 0.0316 µM
[10] = second compound 0.316 µM, first compound 0.1 µM
[11] = second compound 1 µM, first compound 0.0316 µM
[12] = second compound 1 µM, first compound 0.1 µM
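Note: compound exposure lasted seven days before viability was read.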
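Throughout, for viability, T/C: percent of vehicle DMSO treated spheroid viability so 100% = untreated.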

CC(C)n1nc(-c2ccc3oc(N)nc3c2)c2c(N)ncnc21 + COc1c(OCCCN2CCOCC2)ccc2c3n(c(=NC(=O)c4cnc(N)nc4)nc12)CCN3
IC50 (second compound 0.00316 µM): > 100 nM | IC50 (second compound 0.01 µM): 81.8 nM | IC50 (second compound 0.0316 µM): 26.6 nM | IC50 (second compound 0.1 µM): < 0.316 nM | IC50 (second compound 0.316 µM): < 0.316 nM | IC50 (second compound 1 µM): < 0.316 nM | viability, T/C (second compound 0.00316 µM, first compound 0.000316 µM): 86.9% | viability, T/C (second compound 0.00316 µM, first compound 0.001 µM): 110% | viability, T/C (second compound 0.00316 µM, first compound 0.00316 µM): 106% | viability, T/C (second compound 0.00316 µM, first compound 0.01 µM): 99.9% | viability, T/C [1]: 85.3% | viability, T/C [2]: 54.8% | viability, T/C (second compound 0.01 µM, first compound 0.000316 µM): 94.5% | viability, T/C (second compound 0.01 µM, first compound 0.001 µM): 83.2% | viability, T/C (second compound 0.01 µM, first compound 0.00316 µM): 92.6% | viability, T/C (second compound 0.01 µM, first compound 0.01 µM): 89.5% | viability, T/C [3]: 79.6% | viability, T/C [4]: 43.4% | viability, T/C (second compound 0.0316 µM, first compound 0.000316 µM): 83.9% | viability, T/C (second compound 0.0316 µM, first compound 0.001 µM): 107% | viability, T/C (second compound 0.0316 µM, first compound 0.00316 µM): 92.7% | viability, T/C (second compound 0.0316 µM, first compound 0.01 µM): 68% | viability, T/C [5]: 50.2% | viability, T/C [6]: 35.1% | viability, T/C (second compound 0.1 µM, first compound 0.000316 µM): 45.1% | viability, T/C (second compound 0.1 µM, first compound 0.001 µM): 59.4% | viability, T/C (second compound 0.1 µM, first compound 0.00316 µM): 39.2% | viability, T/C (second compound 0.1 µM, first compound 0.01 µM): 48.2% | viability, T/C [7]: 36.9% | viability, T/C [8]: 34.8% | viability, T/C (second compound 0.316 µM, first compound 0.000316 µM): 36.3% | viability, T/C (second compound 0.316 µM, first compound 0.001 µM): 38.9% | viability, T/C (second compound 0.316 µM, first compound 0.00316 µM): 34.5% | viability, T/C (second compound 0.316 µM, first compound 0.01 µM): 31.1% | viability, T/C [9]: 42.5% | viability, T/C [10]: 31.1% | viability, T/C (second compound 1 µM, first compound 0.000316 µM): 42.6% | viability, T/C (second compound 1 µM, first compound 0.001 µM): 37.2% | viability, T/C (second compound 1 µM, first compound 0.00316 µM): 37.1% | viability, T/C (second compound 1 µM, first compound 0.01 µM): 32.5% | viability, T/C [11]: 26.5% | viability, T/C [12]: 33.4%

CC1(C)CCC(CN2CCN(c3ccc(C(=O)NS(=O)(=O)c4ccc(NCC5CCOCC5)c([N+](=O)[O-])c4)c(Oc4cnc5[nH]ccc5c4)c3)CC2)=C(c2ccc(Cl)cc2)C1 + COc1c(OCCCN2CCOCC2)ccc2c3n(c(=NC(=O)c4cnc(N)nc4)nc12)CCN3
IC50 (second compound 0.00316 µM): > 10000 nM | IC50 (second compound 0.01 µM): > 10000 nM | IC50 (second compound 0.0316 µM): > 10000 nM | IC50 (second compound 0.1 µM): 10000 nM | IC50 (second compound 0.316 µM): < 31.6 nM | IC50 (second compound 1 µM): < 31.6 nM | viability, T/C [1]: 98.6% | viability, T/C [2]: 99.3% | viability, T/C (second compound 0.00316 µM, first compound 0.316 µM): 92.7% | viability, T/C (second compound 0.00316 µM, first compound 1 µM): 110% | viability, T/C (second compound 0.00316 µM, first compound 3.16 µM): 84.8% | viability, T/C (second compound 0.00316 µM, first compound 10 µM): 93.1% | viability, T/C [3]: 108% | viability, T/C [4]: 85.6% | viability, T/C (second compound 0.01 µM, first compound 0.316 µM): 83.7% | viability, T/C (second compound 0.01 µM, first compound 1 µM): 66.8% | viability, T/C (second compound 0.01 µM, first compound 3.16 µM): 82.4% | viability, T/C (second compound 0.01 µM, first compound 10 µM): 84.8% | viability, T/C [5]: 67.7% | viability, T/C [6]: 68.6% | viability, T/C (second compound 0.0316 µM, first compound 0.316 µM): 71.1% | viability, T/C (second compound 0.0316 µM, first compound 1 µM): 68.5% | viability, T/C (second compound 0.0316 µM, first compound 3.16 µM): 69.5% | viability, T/C (second compound 0.0316 µM, first compound 10 µM): 74% | viability, T/C [7]: 66.5% | viability, T/C [8]: 44.7% | viability, T/C (second compound 0.1 µM, first compound 0.316 µM): 56.8% | viability, T/C (second compound 0.1 µM, first compound 1 µM): 52.2% | viability, T/C (second compound 0.1 µM, first compound 3.16 µM): 52.5% | viability, T/C (second compound 0.1 µM, first compound 10 µM): 47.3% | viability, T/C [9]: 27.1% | viability, T/C [10]: 36.2% | viability, T/C (second compound 0.316 µM, first compound 0.316 µM): 30% | viability, T/C (second compound 0.316 µM, first compound 1 µM): 33.2% | viability, T/C (second compound 0.316 µM, first compound 3.16 µM): 33.6% | viability, T/C (second compound 0.316 µM, first compound 10 µM): 40.1% | viability, T/C [11]: 34.6% | viability, T/C [12]: 39.5% | viability, T/C (second compound 1 µM, first compound 0.316 µM): 38.9% | viability, T/C (second compound 1 µM, first compound 1 µM): 29.3% | viability, T/C (second compound 1 µM, first compound 3.16 µM): 34.9% | viability, T/C (second compound 1 µM, first compound 10 µM): 32.6%
